What was measured:
Type in all cases: in vivo
[1] = test system: Zymoseptoria tritici (SEPTTR); assay: Field assessment of Compound I and penthiopyrad on leaf blotch of wheat (AUDPC % control); conditions: AUDPC-based, 3 field trials
From the text: (§1) Treatments consisting of the compound of Formula I and fungicide compound penthiopyrad were applied either using individually or as a two-way mixture of penthiopyrad with the compound of Formula I. The compound of Formula I was applied with Agnique BP-420 (50% w/w at 0.3% v/v) at 75 and 150 g ai/ha and Penthiopyrad (Vertisan) was applied at 125 and 200 g ai/ha. Commercial standards used in the studies were Fluxapyroxad (Imtrex), applied at 100 g ai/ha, and Metconazole+Fluxapyroxad (Librax), applied at 161 g ai/ha.
Fungicidal treatments containing the compound of Formula I and penthiopyrad, either individually or as a two-way mixture, were assessed against leaf spot of wheat (SEPTTR) in three separate field trials. In the first trial, fungicidal treatments were applied at B33 (3% infection at application on L3) growth stage of winter wheat (TRZAW, Dinosor variety). The treatments were part of an experimental trial designed as a randomized complete block with four replications and a plot of approximately 1×6 m. Treatments were applied at water volume of 200 L/ha, using a backpack plot sprayer (BKPCKENG, FLATFANA nozzle) and pressurized at 200 kPa.
In the second trial, fungicidal treatments were applied twice at B32 (curative, 25% infection at application on L5) and B37-39 (5% infection at application on L3) growth stages of winter wheat (TRZAW, Consort variety). The treatments were part of an experimental trial designed as a randomized complete block with four replications and a plot of approximately 1×2 m. Treatments were applied at water volume of 200 L/ha, using a backpack plot sprayer (BKPCKAIR, Flat fan nozzle) and pressurized at 210 kPa.
In the final trial, fungicidal treatments were applied twice at B32 (protective, 15% infection at application on L6) and B37-39 (12% infection at application on L5) growth stages of winter wheat (TRZAW, Smaragd variety). The treatments were part of an experimental trial designed as a randomized complete block with four replications and a plot of approximately 2×3 m. Treatments were applied at water volume of 200 L/ha, using a backpack plot sprayer (BICYCAIR, FLATFANA nozzle) and pressurized at 220 kPa.
Disease severity (percentage of visual diseased foliage on whole plot or leaves) in […] field trials was recorded following EPPO PP1/26 guideline prescriptions. Area under the disease progress curve (AUDPC) was calculated for each plot in both trials using the sets of recorded severity data. Relative AUDPC (% control based on AUDPC) was calculated as percent of the nontreated control. Final results for the control of leaf spot of wheat by the compound of Formula I, penthiopyrad and mixtures are reported as an average of the relative AUDPC calculated over all three field trials. […]

[2] = test system: Puccinia striiformis (PUCCST); assay: Field assessment of Compound I and penthiopyrad on yellow rust of wheat (AUDPC % control); conditions: AUDPC-based, 2 field trials
From the text: as §1
Fungicidal treatments containing the compound of Formula I and penthiopyrad, either individually or as a two-way mixture, were assessed against yellow rust of wheat (PUCCST) in two separate field trials. In the first trial, fungicidal treatments were applied twice at B31-32 (early curative, 2% infection at application on L3) and B37-39 (0% infection at application on L) growth stages of winter wheat (TRZAW, Fairplay variety). The treatments were part of an experimental trial designed as a randomized complete block with four replications and a plot of approximately 1×6 m. Treatments were applied at water volume of 200 L/ha, using a backpack plot sprayer (BKPCKENG, F110-015 Hardi (3) Flat fan nozzle) and pressurized at 200 kPa.
In the second trial, fungicidal treatments containing the compound of Formula I and penthiopyrad, either individually or as a two-way mixture, were applied twice at B31-32 (early curative, 5% infection on L5 at application) and B37-39 (early curative, 5% infection on L1 and L2 at application) growth stages of wheat (TRZAW, Torch variety). The treatment was part of an experimental trial designed as a randomized complete block with four replications and a plot of approximately 2×3 m. Treatments were applied at water volume of 200 L/ha, using a backpack precision plot sprayer (BKCKAIR, F110-03 Hypro (4) Flat fan nozzle) and pressurized at 300 kPa.
(§2) Disease severity (percentage of visual diseased foliage on whole plot or leaves) in both field trials was recorded following EPPO PP1/26 guideline prescriptions. Area under the disease progress curve (AUDPC) was calculated for each plot in both trials using the sets of recorded severity data. Relative AUDPC (% control based on AUDPC) was calculated as percent of the nontreated control. Final results for the control of yellow rust of wheat by the compound of Formula I, penthiopyrad and mixtures are reported as an average of the relative AUDPC calculated over all […] field trials. Statistical analysis was done according to ANOVA and Tukey's test (p=0.10).

[3] = test system: Puccinia triticina (PUCCRT); assay: Field assessment of Compound I and penthiopyrad on brown rust of wheat (AUDPC % control); conditions: AUDPC-based, 2 field trials
From the text: as §1
Fungicidal treatments containing the compound of Formula I and penthiopyrad, either individually or as a two-way mixture, were assessed against brown rust of wheat (PUCCRT) in two separate field trials. In the first trial, fungicidal treatments were applied at B37-39 (protectant, approximately 0% infection at application) growth stages of wheat (TRZAW, MV Vanek variety) under natural infection of brown rust. The treatment was part of an experimental trial designed as a randomized complete block with four replications and a plot of approximately 2×3 m. Fungicidal treatments were applied at a water volume of 200 L/ha, using a backpack plot sprayer with a TEEJET QJ90-2XTT110 015 Nozzle.
In the second trial, fungicidal treatments containing the compound of Formula I and penthiopyrad, either individually or as a two-way mixture, were applied at B33 (curative, approximately 6.6% infection at application) growth stage of wheat (TRZAW, Miradoux variety) under natural infection of brown rust. The treatments were part of an experimental trial designed as a randomized complete block with four replications and a plot of approximately 2×3 m. Fungicidal treatments were applied at a water volume of 200 L/ha, using a backpack plot sprayer with a HARDI MD 110-02 Nozzle.
as §2, with “brown” for “yellow”

## CC(C)CC(C)c1sccc1NC(=O)c1cn(C)nc1C(F)(F)F (stereo not drawn) [Penthiopyrad, N-[2-(1,3-dimethylbutyl)-3-thienyl]-1-methyl-3-(trifluoromethyl)-1H-pyrazole-4-carboxamide]
[1]; rate 125 g ai/ha
  SEPTTR % Control: 42.3%
[1]; rate 200 g ai/ha
  SEPTTR % Control: 51.4%
[2]; rate 125 g ai/ha
  PUCCST % Control: 39.6%
[2]; rate 200 g ai/ha
  PUCCST % Control: 46.5%
[3]; rate 125 g ai/ha
  PUCCRT % Control: 84.2%
[3]; rate 200 g ai/ha
  PUCCRT % Control: 85.1%
